According to patent US12364733B1, “Method for treating septic shock” (Inotrem, priority 2018, dated 2025):

How the values were obtained:
septic shock patients = test: Phase IIa clinical trial with nangibotide: days alive and free from vasopressor, IMV or CRRT; format: in vivo, human; details: for difference in the number of CRRT (continuous renal replacement therapy) free days alive vs. placebo / difference in the number of IMV (invasive mechanical ventilation) free days alive vs. placebo / difference in the number of vasopressor free days alive vs. placebo: day 0 to day 28
Method: This was a randomized, double-blind, two-stage, placebo-controlled study. As described in FIG. 7, the study was composed of 2 stages with a similar treatment regimen, in which 0.3, 1.0 or 3.0 mg/kg/h of nangibotide (corresponding to peptide LR12, having an amino acid sequence as set forth in SEQ ID NO: 9, also known as motrem) was tested versus placebo. All patients with a diagnosis of septic shock were considered for study participation. All potential study patients underwent standard care management procedures. Patients with evidence of septic shock according to the Sepsis-3 definition (Singer et al, JAMA 2016) were considered for inclusion (i.e., patients suffering from sepsis and having (i) persisting hypotension requiring vasopressors to maintain their mean arterial pressure ≥65 mm Hg and (ii) a serum lactate level >2 mmol/L (18 mg/dL) despite adequate volume resuscitation).
After screening for eligibility, patients were randomized to one of the treatment arms. Then, they received either a 5 mg/kg loading dose of nangibotide over 15 minutes followed by a continuous intravenous (i.v.) infusion of nangibotide or a matching placebo on top of standard of care. Treatment with study drug was initiated as early as possible, but no later than 24 hours after the onset of septic shock, defined by the start of vasopressor therapy. Patients were treated until 12 (±2) hours after the resolution of their septic shock (defined as vasopressor withdrawal) with a maximum treatment duration of 5 days (120 hours).
Adverse events (AEs) were coded using the MedDRA dictionary version 18.1. Treatment-emergent adverse events (TEAEs) were summarized and listed. Analysis was performed in 49 septic shock patients. The demographic and baseline characteristics were summarized in a descriptive fashion within each population: categorical variables were summarized by contingency tables (frequencies and percentages). sTREM-1 levels at day 1 were also described (mean, standard deviation, standard error, median, quartiles and range, minimum and maximum values). Mortality rates were reported by frequency and percentage. For continuous endpoints, i.e., the sequential organ failure assessment (SOFA), missing data were imputed using LOCF (Last Observation Carry-Forward). For time-to-event analyses, i.e., duration of invasive mechanical ventilation (IMV), duration of continuous renal replacement therapy (CRRT), survival, censored data techniques were utilized. In addition, a sensitivity analysis of time to event data (except survival) was performed using censoring at maximum limit for the corresponding observation period (i.e., either day 28 or day 90). […] The following comparisons were made: each nangibotide dose arm to placebo, all nangibotide doses combined versus placebo, and dose-response using an ordinal trend test. Exploratory composite endpoint: incidence (number and proportion) of patients alive at day 28 and free of vasopressor, free of IMV and free of CRRT were summarized by treatment and compared between treatments with a Fisher's exact test. For pharmacodynamic markers, log transformed data were represented as percentage change from baseline at day 5 or End of Infusion (EOI) if end of infusion was stopped before day 5. […] “All nangibotide” refers to analyses obtained by pooling data from 0.3, 1 and 3 mg/kg/h nangibotide-treated groups.

[1] = Blood nangibotide concentrations by LC-MS/MS (pharmacokinetics, phase IIa trial); format: in vivo, human
Method: Blood nangibotide concentrations were determined by a validated LC-MS/MS method in accordance with European Medicines Agency (EMA) guidelines on bioanalytical method validation EMEA/CHMP/EWP/192217/2009, version EMA/275542/2014. The peptide was stabilized in the blood samples by treatment with a 10% trichloroacetic acid solution ([…], 4° C.) and centrifugation (3500 g, 10 min, 4° C.) to collect and freeze the supernatant before analysis. The lower limit of quantification (LLOQ) and upper limit of quantification (ULOQ) were 5 ng/mL and 1000 ng/mL respectively. Standard curve was linear over the range 5 ng/mL to 1000 ng/mL with a correlation coefficient greater than 0.995. Within-run and between-run precision and accuracy within +/−20% LLOQ and +/−15% (other levels up to ULOQ) were achieved during a 3-run validation for quality controls (QCs) for nangibotide.

[2] = baseline high sTREM-1 subgroup, 0.3 mg/kg/h
[3] = baseline high sTREM-1 subgroup, 3 mg/kg/h
[4] = baseline high sTREM-1 subgroup, all nangibotide
[5] = baseline low sTREM-1 subgroup, 0.3 mg/kg/h
[6] = baseline low sTREM-1 subgroup, 3 mg/kg/h
[7] = baseline low sTREM-1 subgroup, all nangibotide
[8] = whole population, all nangibotide

nangibotide (LQEEDAGEYGCM; TLT-1 peptide)
proportion of patients alive and free of any medical support at day 28 (septic shock patients; all nangibotide group, patients with high circulating sTREM-1 at baseline (above 433 pg/mL), placebo 40%): 70%
difference in the number of CRRT (continuous renal replacement therapy) free days alive vs. placebo (septic shock patients; [2]): 8.67 days
difference in the number of IMV (invasive mechanical ventilation) free days alive vs. placebo (septic shock patients; [2]): 2.63 days
difference in the number of vasopressor free days alive vs. placebo (septic shock patients; [2]): 4.07 days
difference in the number of CRRT (continuous renal replacement therapy) free days alive vs. placebo (septic shock patients; [3]): 7.37 days
difference in the number of IMV (invasive mechanical ventilation) free days alive vs. placebo (septic shock patients; [3]): 4.30 days
difference in the number of vasopressor free days alive vs. placebo (septic shock patients; [3]): -0.48 days
difference in the number of CRRT (continuous renal replacement therapy) free days alive vs. placebo (septic shock patients; [4]): 7.85 days
difference in the number of IMV (invasive mechanical ventilation) free days alive vs. placebo (septic shock patients; [4]): 5.63 days
difference in the number of vasopressor free days alive vs. placebo (septic shock patients; [4]): 2.94 days
difference in the number of CRRT (continuous renal replacement therapy) free days alive vs. placebo (septic shock patients; [5]): 1.43 days
difference in the number of IMV (invasive mechanical ventilation) free days alive vs. placebo (septic shock patients; [5]): 3 days
difference in the number of vasopressor free days alive vs. placebo (septic shock patients; [5]): 2.29 days
difference in the number of CRRT (continuous renal replacement therapy) free days alive vs. placebo (septic shock patients; [6]): 0.89 days
difference in the number of IMV (invasive mechanical ventilation) free days alive vs. placebo (septic shock patients; [6]): -6.32 days
difference in the number of vasopressor free days alive vs. placebo (septic shock patients; [6]): 0.07 days
difference in the number of CRRT (continuous renal replacement therapy) free days alive vs. placebo (septic shock patients; [7]): 0.77 days
difference in the number of IMV (invasive mechanical ventilation) free days alive vs. placebo (septic shock patients; [7]): -1.30 days
difference in the number of vasopressor free days alive vs. placebo (septic shock patients; [7]): 0.64 days
vasopressor use, invasive mechanical ventilation (IMV) use and renal replacement therapy (RRT) use vs. placebo (septic shock patients; no statistically significant differences): consistent numerical trend in favor of nangibotide
difference in the number of CRRT (continuous renal replacement therapy) free days alive vs. placebo (septic shock patients; whole population, 0.3 mg/kg/h): 4.10 days
difference in the number of IMV (invasive mechanical ventilation) free days alive vs. placebo (septic shock patients; whole population, 0.3 mg/kg/h): 2.32 days
difference in the number of CRRT (continuous renal replacement therapy) free days alive vs. placebo (septic shock patients; whole population, 3 mg/kg/h): 1.50 days
difference in the number of IMV (invasive mechanical ventilation) free days alive vs. placebo (septic shock patients; whole population, 3 mg/kg/h): -2.08 days
difference in the number of CRRT (continuous renal replacement therapy) free days alive vs. placebo (septic shock patients; [8]): 2.70 days
difference in the number of IMV (invasive mechanical ventilation) free days alive vs. placebo (septic shock patients; [8]): 1.33 days
nangibotide blood concentration versus dose ([1]; 0.3, 1.0, 3.0 mg/kg/h): proportional with the dose
clearance after the end of infusion ([1]; human, in vivo): quickly cleared
pharmacokinetics / blood concentrations compared with healthy volunteers ([1]; in vivo): within the same range previously observed in healthy volunteers
pharmacokinetic behavior during intravenous infusion ([1]; in vivo, iv): linear behavior
